Assay [1] has as its system bFGF stimulated Erk phosphorylation in NIH 3T3 cells. Put plainly: Cell pErk - growth factor stimulated Erk phosphorylation. Format: cell-based. The following applies: Mus musculus. The text has this: Cell Assays Cell pErk—Growth Factor Stimulated Erk Phosphorylation
These and other assays were used to evaluate the ability of a test compound to inhibit growth factor stimulated cellular signalling in mammalian cell lines. This was achieved by measuring the amount of receptor tyrosine kinase regulated Erk phosphorylation within a cell following compound treatment.
NIH 3T3 (ECACC, 93061524) cells were routinely passaged in DMEM (Gibco BRL, 41966) plus 10% foetal calf serum (FCS), 1% L-glutamine (Gibco BRL, 25030) to a confluence not greater than 80%. To undertake the assay, NIH 3T3's were seeded at 1×10^4 cells/well in DMEM plus 10% foetal calf serum, 1% L-glutamine in 96 well plates (Costar, 3904) and incubated at 37° C. (+5% CO2) in a humidified incubator. Once the cells had fully adhered (typically following 4-5 hours incubation) the media was removed from each well and the cells gently washed with 100 μl warm serum free media. 90 μl of serum free DMEM plus 1% L-glutamine was then added to each well and the plates were returned to a humidified 37° C. (+5% CO2) incubator. The following day, the plates were dosed with 10 μl compound (diluted from 10 mM stock in DMSO using serum free DMEM) and the plates were returned to a humidified 37° C. (+5% CO2) incubator for one hour. NIH 3T3 cells were then stimulated with a final concentration of 3 ng/ml bFGF (Sigma, F0291) for 20 minutes at 37° C. Following stimulation the cells were fixed by adding formaldehyde (4% v/v final concentration) and incubating at room temperature for 20 minutes. The fixative solution was then removed and the wells were washed twice with 100 μl phosphate buffered saline (PBS/A) before permeabilising the cells by the addition of 50 μl/well 0.1% triton/PBS/A for 10 minutes at room temperature. The permeabilisation solution was then removed and the cells washed twice more with 100 μl/well PBS/A before the addition of 50 μl/well anti-phospho p44/42 antibody (Cell Signalling Technology, 9106), diluted 1/500 with PBS/A plus 10% FCS. The anti-phospho p44/42 antibody recognises Erk phosphorylated at threonine 202 and tyrosine 204. Following incubation at room temperature for 2 hours, the antibody solution was removed and the wells were washed twice with 100 μl/well PBS/A. 50 μl/well 1/250 goat anti-mouse alexa fluor 488 secondary antibody (Molecular Probes, A11001) and 1/10000 Hoescht (Molecular Probes, H-3570) diluted with PBS/A plus 10% FCS was added and the plate incubated in the dark at room temperature for one hour. Finally, the plates were washed three times with 100 μl/well PBS/A, leaving the final wash in the wells before sealing the plates. The plates were read at 350 nm and 488 nm using an Arrayscan (Cellomics). […] IC50 value is the concentration of test compound that inhibits 50% of Erk phosphorylation.

Assay [2] deals with T1, His6-tagged FGFR kinase domain (Homo sapiens, UniProt P11362, C488A/C584S).
T1 construct: FGFR kinase domain (amino acids 458-765, C488A, C584S) N-terminally fused to a His6-tag and TEV cleavage site; His6-tag plus linker and TEV cleavage site (printed as X1); made in house
T1 sequence (P11362 458-765 C488A/C584S): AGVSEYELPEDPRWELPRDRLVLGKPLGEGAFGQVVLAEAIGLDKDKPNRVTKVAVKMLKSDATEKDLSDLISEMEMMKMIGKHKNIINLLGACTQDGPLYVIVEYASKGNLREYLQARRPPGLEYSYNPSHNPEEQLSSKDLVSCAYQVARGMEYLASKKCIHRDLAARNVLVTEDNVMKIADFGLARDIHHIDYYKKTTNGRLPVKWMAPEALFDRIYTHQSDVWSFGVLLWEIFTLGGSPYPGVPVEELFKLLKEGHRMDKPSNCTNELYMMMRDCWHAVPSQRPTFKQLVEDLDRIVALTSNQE
The experiment in a line: FGFR Kinase assay - Elisa. Format: biochemical. The method, then:
To determine inhibition of FGFR activity, kinase assays were conducted using ELISA (Enzyme-Linked Immunosorbent Assay) technology.
Kinase activity assays were performed in 384-well polypropylene plates (Matrix, Catalogue No. 4311. Matrix are part of Thermo Fisher Scientific, 22 Friars Drive, Hudson, N.H. 03051, USA) with a total volume of 40 μl in each well. Each well was coated with 2 μg of polyEAY substrate (Sigma, Catalogue No. P3899) at 4° C. overnight. The plates were then washed once with 100 μl PBS and once with 100 μl 50 mM HEPES (pH 7.4) prior to the addition of the kinase assay reagents. Reactions contained His6-tagged FGFR kinase domain (FGFR kinase domain (amino acids 458-765, C488A, C584S) N-terminally fused to a His6-tag and TEV cleavage site encoded by the following sequence; [[…]]. The final alanine denotes the start of the FGFR protein sequence. The resultant protein was expressed and purified based on Mohammadi et al, Cell Vol 86, 577-587 (1996). Each kinase reaction contained 0.1 ng His6-tagged FGFR kinase domain, 50 mM HEPES (pH 7.4), 0.1 mM Na3VO4, 0.1 mM DTT, 0.05% (v/v) Triton X100, 20 mM MgCl2, 160 μM ATP. Various concentrations of test compounds were each added in 5% (v/v) DMSO to yield a final assay DMSO concentration of 1.25% (v/v). The kinase reactions were incubated at room temperature for 45 minutes and stopped by washing the plate three times with 100 μl PBS plus 0.05% Tween. 40 μl of a one in 10000 dilution of 4G10-HRP antibody (Upstate Biotechnology, UBI 16-105. Upstate are part of Millipore Corporation, 290 Concord Road, Billerca Mass. 01821 USA) made up in 0.5% (w/v) BSA/PBS was then added to each well and the plates incubated at room temperature for one hour. Following this, the plates were then washed repeatedly with 100 μl PBS plus 0.05% Tween to remove all traces of the antibody solution. 40 μl of 50 μg/ml 3,3′,5,5′-Tetramethylbenzidine (Sigma, Catalogue No. T2885), 0.05M phosphate-citrate buffer, containing 0.03% sodium perborate was added to each well and the plates incubated at room temperature for twelve minutes. The colour reaction was stopped by the addition of 20 μl 2M H2SO4 and the plates read at 450 nm on a Spectrafluor Plus (Tecan Trading AG, Switzerland). In the assay, compounds were tested at a range of concentrations.
Percentage inhibition at 1 uM, as expressed herein, is a calculated value based on the curve fit that was generated experimentally. From the fitted curve plot, the effect of compound at a concentration of 1 uM was calculated as a percentage inhibition. The IC50 value is the concentration of test compound that inhibits 50% of FGFR kinase activity.

In a further assay the target is FGFR1 active kinase (Homo sapiens, UniProt P11362). The experiment in a line: FGFR Kinase assay - Caliper. On FGFR Kinase assay - Caliper, IC50: 408 µM ATP. Format: biochemical.
FGFR1 active kinase, sequence (P11362 22-822): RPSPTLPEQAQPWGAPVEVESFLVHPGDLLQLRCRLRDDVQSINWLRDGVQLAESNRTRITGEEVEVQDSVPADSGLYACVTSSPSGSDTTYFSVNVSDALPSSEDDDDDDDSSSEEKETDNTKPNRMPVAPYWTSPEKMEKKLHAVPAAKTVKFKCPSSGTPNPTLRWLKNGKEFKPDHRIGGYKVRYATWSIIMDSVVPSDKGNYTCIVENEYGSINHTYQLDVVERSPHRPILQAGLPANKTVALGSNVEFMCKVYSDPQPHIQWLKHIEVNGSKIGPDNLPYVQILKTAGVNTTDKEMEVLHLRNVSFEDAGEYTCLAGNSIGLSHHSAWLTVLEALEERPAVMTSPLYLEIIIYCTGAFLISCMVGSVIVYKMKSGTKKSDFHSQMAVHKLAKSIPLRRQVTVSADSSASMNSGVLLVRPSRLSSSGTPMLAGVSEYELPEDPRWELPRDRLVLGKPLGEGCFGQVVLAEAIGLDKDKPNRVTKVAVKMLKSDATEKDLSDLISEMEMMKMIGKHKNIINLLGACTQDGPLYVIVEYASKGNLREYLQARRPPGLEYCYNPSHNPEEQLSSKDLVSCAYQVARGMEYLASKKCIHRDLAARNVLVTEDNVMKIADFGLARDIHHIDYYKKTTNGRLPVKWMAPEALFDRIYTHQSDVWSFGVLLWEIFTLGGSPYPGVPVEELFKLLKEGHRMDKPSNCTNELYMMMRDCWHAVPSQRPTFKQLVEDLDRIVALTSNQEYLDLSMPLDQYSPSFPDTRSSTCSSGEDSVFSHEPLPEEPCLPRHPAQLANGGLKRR
[3] abbreviates: NIH3T3, 3 ng/ml bFGF, read-out: Activity class (Cell pErk).
The mark [4] stands for this setting: FGFR inhibition test, Elisa, read-out: Activity class (FGFR Kinase assay - Elisa).
Setting [5] is: polyEAY substrate, 160 μM ATP, read-out: FGFR Kinase assay - Elisa, IC50.
Where [6] appears, read: FGFR1 […], 408 uM ATP, mean of n as printed, read-out: FGFR Kinase assay - Caliper, IC50.
Where [7] appears, read: FGFR inhibition test, Caliper, read-out: Activity class (FGFR Kinase assay - Caliper).

Read-outs that look alike come from different tables or passages of the source.

With `COc1cccc(CCc2cc(NC(=O)c3ccc(N4CCN(C)CC4)cc3)[nH]n2)c1` [Example 11, N-[5-[2-(3-methoxyphenyl)ethyl]-2H-pyrazol-3-yl]-4-(4-methylpiperazin-1-yl)benzamide], the IC50 in assay [1] (setting [3]) was less than 300 nM; in assay [2] (setting [4]), less than 300 nM; in assay [2] (setting [5]) it was 82.8 nM.

Take `COc1cccc(CCc2cc(NC(=O)c3cnc(C)cn3)[nH]n2)c1` [Example 16, N-[5-[2-(3-Methoxyphenyl)ethyl]-2H-pyrazol-3-yl]-5-methyl-pyrazine-2-carboxamide]: the IC50 is 300 to 1000 nM in assay [2] (setting [4]), 750 nM at FGFR1 active kinase (setting [6]) and 300 to 1000 nM on FGFR1 active kinase (setting [7]).

Consider `COc1cccc(CCc2cc(NC(=O)c3ccc(NC(C)=O)cc3)[nH]n2)c1` [Example 19, 4-Acetamido-N-[5-[2-(3-methoxyphenyl)ethyl]-2H-pyrazol-3-yl]benzamide], for which the IC50 in assay [2] (setting [4]) is less than 300 nM; at FGFR1 active kinase (setting [6]), 400 nM; on FGFR1 active kinase (setting [7]), 300 to 1000 nM.

`CN1CCN(c2ccc(C(=O)Nc3cc(CCc4ccccc4)n[nH]3)cc2)CC1` [Example 1, 4-(4-methylpiperazin-1-yl)-N-(5-phenethyl-2H-pyrazol-3-yl)benzamide]: the IC50 is 300 to 1000 nM in assay [1] (setting [3]), less than 300 nM in assay [2] (setting [4]) and 220 nM in assay [2] (setting [5]).

`CN1CCN(c2ccc(C(=O)Nc3cc(CCc4ccco4)n[nH]3)cc2)CC1` [Example 8, N-[5-[2-(2-furyl)ethyl]-2H-pyrazol-3-yl]-4-(4-methylpiperazin-1-yl)benzamide]: the IC50 in assay [1] (setting [3]) is less than 300 nM; in assay [2] (setting [4]), less than 300 nM; in assay [2] (setting [5]), 79.5 nM; at FGFR1 active kinase (setting [7]), less than 300 nM.

Take `COc1cc(CCc2cc(NC(=O)c3ccccc3)[nH]n2)cc(OC)c1` [Example 2, N-[5-[2-(3,5-dimethoxyphenyl)ethyl]-2H-pyrazol-3-yl]benzamide]: the IC50 in assay [1] (setting [3]) was less than 300 nM; at FGFR1 active kinase (setting [6]), 140 nM.

`COc1cccc(CCc2cc(NC(=O)c3ccc(OC)nc3)[nH]n2)c1` [Example 14, 6-Methoxy-N-[5-[2-(3-methoxyphenyl)ethyl]-2H-pyrazol-3-yl]pyridine-3-carboxamide]: the IC50 in assay [2] (setting [4]) is 300 to 1000 nM; in assay [2] (footnote example, read-out: FGFR Kinase assay - Elisa, value in table footnote), 732 nM; on FGFR1 active kinase (setting [6]) it was 610 nM; on FGFR1 active kinase (setting [7]) it was 300 to 1000 nM; on FGFR1 active kinase (footnote example, read-out: FGFR Kinase assay - Caliper, value in table footnote), 612 nM.

As for `CN1CCN(c2ccc(C(=O)Nc3cc(CCc4cccnc4)n[nH]3)cc2)CC1` [Example 7, 4-(4-methylpiperazin-1-yl)-N-[5-(2-pyridin-3-ylethyl)-2H-pyrazol-3-yl]benzamide], the IC50 is 1000 to 30000 nM in assay [1] (setting [3]), less than 300 nM in assay [2] (setting [4]), 47 nM at FGFR1 active kinase (setting [6]) and less than 300 nM at FGFR1 active kinase (setting [7]).

As to `CN1CCN(c2ccc(C(=O)Nc3cc(CCc4ccoc4)n[nH]3)cc2)CC1` [Example 9, N-[5-[2-(3-furyl)ethyl]-2H-pyrazol-3-yl]-4-(4-methylpiperazin-1-yl)benzamide], the IC50 in assay [1] (setting [3]) was 300 to 1000 nM; in assay [2] (setting [4]), less than 300 nM; on FGFR1 active kinase (setting [6]), 137 nM; at FGFR1 active kinase (setting [7]), less than 300 nM.

`COCCOc1cccc(CCc2cc(NC(=O)c3ccc(N4CCN(C)CC4)cc3)[nH]n2)c1` [Example 6, N-[5-[2-[3-(2-methoxyethoxy)phenyl]ethyl]-2H-pyrazol-3-yl]-4-(4-methylpiperazin-1-yl)benzamide]: the IC50 in assay [2] (setting [4]) is less than 300 nM; at FGFR1 active kinase (setting [6]), 58 nM; on FGFR1 active kinase (setting [7]), less than 300 nM.

Turning to `CCNc1ccc(C(=O)Nc2cc(CCc3cccc(OC)c3)n[nH]2)cn1` [Example 18, 6-Ethylamino-N-{5-[2-(3-methoxy-phenyl)-ethyl]-2H-pyrazol-3-yl}-nicotinamide], the IC50 in assay [1] (setting [3]) was 300 to 1000 nM; in assay [1] (NIH3T3, footnote example, read-out: Cell pErk, value in table footnote), 877 nM; in assay [2] (setting [4]), 300 to 1000 nM; on FGFR1 active kinase (setting [6]) it was 540 nM; at FGFR1 active kinase (setting [7]) it was 300 to 1000 nM.

For the molecule `COc1cccc(CCc2cc(NC(=O)c3ccc(S(C)(=O)=O)cc3)[nH]n2)c1` [Example 15, N-[5-[2-(3-Methoxyphenyl)ethyl]-2H-pyrazol-3-yl]-4-methylsulfonyl-benzamide], the values for the IC50 (in assay [2] (setting [4]); at FGFR1 active kinase (setting [6]); at FGFR1 active kinase (setting [7])) were less than 300 nM, 110 nM and less than 300 nM, respectively.

In the case of `COc1cc(CCc2cc(NC(=O)c3ccc(CN4CCC(F)CC4)cc3)[nH]n2)cc(OC)c1` [Example 5, N-[5-[2-(3,5-dimethoxyphenyl)ethyl]-2H-pyrazol-3-yl]-4-[(4-fluoropiperidin-1-yl)methyl]benzamide], the IC50 in assay [2] (setting [4]) was less than 300 nM; at FGFR1 active kinase (setting [6]) it was 63 nM; at FGFR1 active kinase (setting [7]), less than 300 nM.

`COc1cc(COc2cc(NC(=O)c3cnc(N4CCN(C)CC4)cn3)[nH]n2)cc(OC)c1` [Example 20, N-[5-[(3,5-Dimethoxyphenyl)methoxy]-2H-pyrazol-3-yl]-5-(4-methylpiperazin-1-yl)pyrazine-2-carboxamide]: the IC50 in assay [2] (setting [4]) was less than 300 nM; on FGFR1 active kinase (setting [6]), 46 nM; at FGFR1 active kinase (setting [7]) it was less than 300 nM.

Regarding `COc1cc(CCc2cc(NC(=O)c3ccc(N4CCOCC4)cc3)[nH]n2)cc(OC)c1` [Example 4, N-[5-[2-(3,5-dimethoxyphenyl)ethyl]-2H-pyrazol-3-yl]-4-morpholin-4-yl-benzamide], the IC50 in assay [2] (setting [4]) was less than 300 nM; at FGFR1 active kinase (setting [6]), 68 nM; on FGFR1 active kinase (setting [7]) it was less than 300 nM.

(Values after patent publication US10301267B2, “Compounds” (AstraZeneca AB, priority 2006, dated 2019).)
